Results as given in ChEMBL document CHEMBL1134428, “Combretoxazolones: synthesis, cytotoxicity and antitumor activity” (Bioorg Med Chem Lett, 2001).

Assays:
HCT-116 [1] = assay: Compound was tested for inhibition of growth of human colon tumor HCT116 up to a conc of 10 uM; NI means no inhibition; format: functional, cell-based
MCF7 [2] = assay: Compound was tested for inhibition of growth of human breast tumor MCF-7 cell line up to a conc of 10 uM; NI means no inhibition; format: functional, cell-based
B16 [3] = assay: Concentration which produces 50% inhibition of growth of murine melanoma B16 cell line; format: functional, cell-based; conditions: Mus musculus
PC-3 [4] = assay: Compound was tested for inhibition of growth of prostate tumor cell line PC-3 up to a conc of 10 uM; NI means no inhibition; format: functional, cell-based, Homo sapiens
A549 [5] = assay: Compound was tested for inhibition of growth of human lung carcinoma cell line A549 up to a conc of 10 uM; NI means no inhibition; format: functional, cell-based
B16 [6] = assay: In vivo antitumor activity against BDF1 mice bearing B16 murine melanoma cells at a dose of 3 mg/kg/day; format: functional, Mus musculus
PC-3 [7] = assay: Concentration which produces 50% inhibition of growth of prostate tumor cell line PC-3; format: functional, cell-based; conditions: Homo sapiens
MCF7 [8] = assay: Concentration which produces 50% inhibition of growth of human breast tumor MCF-7 cell line; format: functional, cell-based
HCT-116 [9] = assay: Concentration which produces 50% inhibition of growth of human colon tumor HCT 116; format: functional, cell-based
A549 [10] = assay: Concentration which produces 50% inhibition of growth of human lung carcinoma cell line A549; format: functional, cell-based
B16 [11] = assay: In vivo antitumor activity against BDF1 mice bearing B16 murine melanoma cells at a dose of 10 mg/kg/day; format: functional, Mus musculus
B16 [12] = assay: In vivo antitumor activity against BDF1 mice bearing B16 murine melanoma cells at a dose of 100 mg/kg/day; format: functional, Mus musculus
B16 [13] = assay: In vivo antitumor activity against BDF1 mice bearing B16 murine melanoma cells at a dose of 30 mg/kg/day; format: functional, Mus musculus

Row | Compound | IC50 (HCT-116 [1]) | IC50 (MCF7 [2]) | IC50 (B16 [3]) | IC50 (PC-3 [4]) | IC50 (A549 [5]) | IC50 (PC-3 [7]) | IC50 (MCF7 [8]) | IC50 (HCT-116 [9]) | IC50 (A549 [10]) | Inhibition rate (B16 [6]) | Inhibition rate (B16 [11]) | Inhibition rate (B16 [12]) | Inhibition rate (B16 [13])
1 | COc1ccc(-c2nc(O)oc2-c2cc(OC)c(OC)c(OC)c2)cc1 | Not Active | Not Active | 1390 nM | Not Active | Not Active |  |  |  |  |  |  |  | 
2 | COc1cccc2c1C(=O)c1c(O)c3c(c(O)c1C2=O)C[C@@](O)(C(=O)CO)C[C@@H]3O[C@H]1C[C@H](N)[C@H](O)[C@H](C)O1 [DOXORUBICIN] |  |  |  |  |  |  |  |  |  | 55% |  |  | 
3 | COc1ccc(-n2c(-c3cc(OC)c(OC)c(OC)c3)coc2=O)cc1 | Not Active | Not Active | 1880 nM | Not Active | Not Active |  |  |  |  |  |  |  | 
4 | COc1ccc(-c2oc(O)nc2-c2cc(OC)c(OC)c(OC)c2)cc1 |  |  | 14.5 nM |  |  | 20.1 nM | 28.4 nM | 21.7 nM | 16.9 nM |  |  |  | 
5 | COc1cc(-c2nc(O)oc2-c2ccc3c(c2)OCO3)cc(OC)c1OC |  |  | 89.3 nM |  |  | 112 nM | 78.5 nM | 101 nM | 63.1 nM |  |  |  | 
6 | COc1cc(-n2c(-c3ccc4c(c3)OCO4)coc2=O)cc(OC)c1OC |  |  | 45 nM |  |  | 70.6 nM | 39.7 nM | 57.4 nM | 64.5 nM |  |  |  | 
7 | COc1ccc(/C=C\c2cc(OC)c(OC)c(OC)c2)cc1O [COMBRETASTATIN A4] |  |  | 1 nM |  |  | 2.7 nM | 2.7 nM | 0.9 nM | 2.1 nM |  |  |  | 

Continued, in another order:

Row | IC50 (HCT-116 [1]) | IC50 (MCF7 [2]) | IC50 (B16 [3]) | IC50 (PC-3 [4]) | IC50 (A549 [5]) | IC50 (PC-3 [7]) | IC50 (MCF7 [8]) | IC50 (HCT-116 [9]) | IC50 (A549 [10]) | Compound | Inhibition rate (B16 [6]) | Inhibition rate (B16 [11]) | Inhibition rate (B16 [12]) | Inhibition rate (B16 [13])
8 |  |  | 0.9 nM |  |  | 2.3 nM | 2.9 nM | 1.7 nM | 3.1 nM | COc1ccc(-c2coc(=O)n2-c2cc(OC)c(OC)c(OC)c2)cc1O |  |  |  | 
9 |  |  | 7.9 nM |  |  | 7.5 nM | 10.5 nM | 11 nM | 19.9 nM | COc1ccc(-c2coc(=O)n2-c2cc(OC)c(OC)c(OC)c2)cc1 |  |  |  | 
10 |  |  | 5.4 nM |  |  | 6.4 nM | 5.7 nM | 6.1 nM | 7.9 nM | COc1ccc(-c2oc(O)nc2-c2cc(OC)c(OC)c(OC)c2)cc1O |  |  |  | 
11 |  |  | 1.1 nM |  |  | 2.5 nM | 1.8 nM | 3.2 nM | 4.3 nM | COc1ccc(-c2coc(=O)n2-c2cc(OC)c(OC)c(OC)c2)cc1N |  | 34% | 67% | 61%
12 |  |  | 7.4 nM |  |  | 7.1 nM | 16.7 nM | 11.2 nM | 10.8 nM | COc1cc(-c2nc(O)oc2-c2ccc3ccccc3c2)cc(OC)c1OC |  |  |  | 
13 |  |  | 5.8 nM |  |  | 3.1 nM | 3.7 nM | 4.9 nM | 5.9 nM | COc1cc(-n2c(-c3ccc4ccccc4c3)coc2=O)cc(OC)c1OC |  |  |  | 
14 |  |  | 2.4 nM |  |  | 2.1 nM | 4.9 nM | 3.7 nM | 3.8 nM | COc1ccc(-c2oc(O)nc2-c2cc(OC)c(OC)c(OC)c2)cc1N |  |  |  | 
